Test results taken from patent US20260335313A1, “NOVEL CDK9 INHIBITORS” (Origenis GmbH, priority 2022, published 2026).

These compounds were tested against T1, CDK9/CyclinT1 (Homo sapiens, UniProt P50750) (assay: CDK9/T1 ADPGlo Activity (ADP Glo Kinase assay, inhibitory activity)). Conditions: CDK9/CyclinT1 f.c. 6 nM; PDKtide 40 microM; ATP 10 microM; 10 min preincubation, 120 min at RT; 12 concentrations, 1:3 dilution from 5 microM.
T1 construct: purchased ProQinase/Reaction Biology, USA 0371-0345-1
Assay type: biochemical
Description: ASSAY PROTOCOL for Determination of Inhibitory Activity
The testing compound was evaluated in 12 concentrations in a 1:3 dilution series, starting from 5microM as the highest concentration.
In a white 384 microplate (Greiner bio-one, Austria #784904,) with 2 microL of 3-fold concentrated CDK9/CyclinT1 (ProQinase/Reaction Biology, USA #0371-0345-1, LOT.: 012), final concentration (f.c.) 6 nM, in 1× kinase buffer, 2 microL of compound (3× fold concentrated in f.c. 1.66% DMSO/H2O) was added and incubated at Room Temperature (RT) for 10 min. Then 2 microL of Substrate/ATP-Mix (3× PDKtide f.c. 40 microM, SignalChem Biotech, Canada via Biozol, Eching, Germany #P10-58, LOT.: L2230-7 and 3× UltraPure ATP f.c. 10 microM (ADP Glo Kinase assay, Promega GmbH, Germany #V9102)) were added, mixed and incubated for 120 min at RT.
After incubation time, 5 microL of ADP Glo reagent (ready to use, ADP Glo Kinase assay, Promega GmbH, Germany #V9102) were added, mixed and incubated for 40 min at RT.
In the last step, 10 microL of ADP Glo Detection reagent (ready to use, ADP Glo Kinase assay, Promega GmbH, Germany #V9102) were added, mixed and incubated for 30 min at RT.
GloMax Discover GM3000 Reader (Promega GmbH, Germany 9700000249) was used for the readout.
The inhibitor concentration was plotted against the luminescence to determine the IC50 using XLFit 5.5 (IDBS, Guildford) to fit to a sigmoidal dose response curve with a variable slope.

T1 sequence (P50750 whole entry): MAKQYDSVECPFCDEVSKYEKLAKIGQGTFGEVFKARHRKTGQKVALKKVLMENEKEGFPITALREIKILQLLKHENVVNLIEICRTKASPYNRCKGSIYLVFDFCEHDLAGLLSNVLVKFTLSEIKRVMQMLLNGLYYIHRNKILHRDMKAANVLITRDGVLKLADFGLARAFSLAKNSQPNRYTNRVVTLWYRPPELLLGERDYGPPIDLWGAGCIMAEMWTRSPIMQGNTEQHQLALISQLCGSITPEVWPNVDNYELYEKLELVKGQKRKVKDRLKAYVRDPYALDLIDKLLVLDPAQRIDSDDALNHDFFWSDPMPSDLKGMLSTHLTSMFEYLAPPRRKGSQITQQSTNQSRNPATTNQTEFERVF
T1 sequence (O60563 whole entry partner): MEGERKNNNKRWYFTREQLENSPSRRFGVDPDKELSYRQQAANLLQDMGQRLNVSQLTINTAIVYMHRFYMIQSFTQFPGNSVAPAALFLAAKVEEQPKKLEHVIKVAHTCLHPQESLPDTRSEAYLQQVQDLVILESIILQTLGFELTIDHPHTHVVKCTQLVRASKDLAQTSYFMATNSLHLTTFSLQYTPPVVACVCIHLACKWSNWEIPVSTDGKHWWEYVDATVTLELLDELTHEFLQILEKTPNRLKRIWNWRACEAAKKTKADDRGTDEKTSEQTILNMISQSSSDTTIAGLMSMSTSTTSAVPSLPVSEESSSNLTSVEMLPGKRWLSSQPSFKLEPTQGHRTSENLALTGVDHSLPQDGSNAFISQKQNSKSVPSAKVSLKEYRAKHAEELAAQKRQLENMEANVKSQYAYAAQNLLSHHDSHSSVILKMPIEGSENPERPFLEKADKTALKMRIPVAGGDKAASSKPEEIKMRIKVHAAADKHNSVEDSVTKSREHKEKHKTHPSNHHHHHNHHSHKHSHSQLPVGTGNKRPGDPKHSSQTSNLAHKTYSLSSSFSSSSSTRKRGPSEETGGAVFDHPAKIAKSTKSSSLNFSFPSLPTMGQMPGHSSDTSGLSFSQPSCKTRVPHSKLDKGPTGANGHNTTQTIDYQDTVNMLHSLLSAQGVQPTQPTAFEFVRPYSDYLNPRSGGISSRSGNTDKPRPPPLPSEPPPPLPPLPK

Row | SMILES | IC50 [nM]
1 | CN1CCN([C@H]2CC[C@H](Nc3cc(-c4c(F)cccc4F)nn4c(Cl)cnc34)CC2)CC1 [Example #1, 3-chloro-6-(2,6-difluorophenyl)-N-((1r,4r)-4-(4-methylpiperazin-1-yl)cyclohexyl)imidazo[1,2-b]pyridazin-8-amine] | < 200
2 | NC1CCC(Nc2c(Cl)c(-c3c(F)cccc3F)nn3c(Cl)cnc23)CC1 (stereo not shown) [Example #8, (1r,4r)-N1-(3,7-dichloro-6-(2,6-difluorophenyl)imidazo[1,2-b]pyridazin-8-yl)cyclohexane-1,4-diamine] | < 200
3 | CC1CN(C(=O)OC(C)(C)C)CCC1Nc1cc(-c2c(F)cccc2F)nn2c(Cl)cnc12 (racemic) [Example #16, tert-butyl-4-((3-chloro-6-(2,6-difluorophenyl)imidazo[1,2-b]pyridazin-8-yl)amino)-3-methylpiperidine-1-carboxylate] | < 200
4 | Fc1cccc(F)c1-c1cc(N[C@H]2CC[C@H](N3CCOCC3)CC2)c2ncc(Cl)n2n1 [Example #11, 3-chloro-6-(2,6-difluorophenyl)-N-((1r,4r)-4-morpholinocyclohexyl)imidazo[1,2-b]pyridazin-8-amine] | < 20
5 | CC1CNCCC1Nc1cc(-c2c(F)cccc2F)nn2c(Cl)cnc12 (racemic) [Example #15, 3-chloro-6-(2,6-difluorophenyl)-N-(3-methylpiperidin-4-yl)imidazo[1,2-b]pyridazin-8-amine] | < 200
6 | CC1CN(S(C)(=O)=O)CCC1Nc1cc(-c2c(F)cccc2F)nn2c(Cl)cnc12 (racemic) [Example #14, 3-chloro-6-(2,6-difluorophenyl)-N-(3-methyl-1-(methylsulfonyl)piperidin-4-yl)imidazo[1,2-b]pyridazin-8-amine] | < 200
7 | CN1CCC(Nc2cc(-c3c(F)cccc3F)nn3c(Cl)cnc23)C1 (racemic) [Example #18, 3-chloro-6-(2,6-difluorophenyl)-N-(1-methylpyrrolidin-3-yl)imidazo[1,2-b]pyridazin-8-amine] | < 20
8 | CS(=O)(=O)N1CCC(Nc2cc(-c3c(F)cccc3F)nn3c(Cl)cnc23)CC1 [Example #17, 3-chloro-6-(2,6-difluorophenyl)-N-(1-(methylsulfonyl)piperidin-4-yl)imidazo[1,2-b]pyridazin-8-amine] | < 20
9 | CN1CCC(Nc2cc(-c3c(F)cccc3F)nn3c(Cl)cnc23)CC1 [Example #10, 3-chloro-6-(2,6-difluorophenyl)-N-(1-methylpiperidin-4-yl)imidazo[1,2-b]pyridazin-8-amine] | < 20
10 | N[C@H]1CC[C@H](Nc2cc(-c3c(F)cccc3F)nn3c(Cl)cnc23)CC1 [Example #9, (1r,4r)-N1-(3-chloro-6-(2,6-difluorophenyl)imidazo[1,2-b]pyridazin-8-yl)cyclohexane-1,4-diamine] | < 200
11 | Cc1cc(C)c(CNc2cc(-c3c(F)cccc3F)nn3c(Cl)cnc23)cn1 [Example #3, 3-chloro-6-(2,6-difluorophenyl)-N-((4,6-dimethylpyridin-3-yl)methyl)imidazo[1,2-b]pyridazin-8-amine] | < 20
12 | CN(C)[C@H]1CC[C@H](Nc2cc(-c3c(F)cccc3F)nn3c(Cl)cnc23)CC1 [Example #12, (1r,4r)-N1-(3-chloro-6-(2,6-difluorophenyl)imidazo[1,2-b]pyridazin-8-yl)-N4,N4-dimethylcyclohexane-1,4-diamine] | < 200
13 | Fc1cccc(F)c1-c1cc(NCc2cccnc2)c2ncc(Cl)n2n1 [Example #4, 3-chloro-6-(2,6-difluorophenyl)-N-(pyridin-3-ylmethyl)imidazo[1,2-b]pyridazin-8-amine] | < 20
